According to PubChem BioAssay (NCI):
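Method: 48-hour compound exposure of cells in 96-well plates, five concentrations, linear interpolation of endpoints. GI50 marks 50% less growth. TGI: concentration producing complete growth inhibition.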

Tests used:
Experiment in all cases: inhibition of tumour cell growth, NCI panel, 48 h
[1] = test system: 786-0 renal
[2] = test system: A498 renal
[3] = test system: A549 NSCLC
[4] = test system: ACHN renal
[5] = test system: BT-549 breast
[6] = test system: CAKI-1 renal
[7] = test system: CCRF-CEM leukemia
[8] = test system: COLO 205 colon
[9] = test system: DU-145 prostate
[10] = test system: EKVX NSCLC
[11] = test system: HCC-2998 colon
[12] = test system: HCT-116 colon
[13] = test system: HCT-15 colon
[14] = test system: HL-60(TB) leukemia
[15] = test system: HOP-62 NSCLC
[16] = test system: HOP-92 NSCLC
[17] = test system: HS 578T breast
[18] = test system: HT29 colon
[19] = test system: IGROV1 ovarian
[20] = test system: K-562 leukemia
[21] = test system: KM12 colon
[22] = test system: LOX IMVI melanoma
[23] = test system: M14 melanoma
[24] = test system: MALME-3M melanoma
[25] = test system: MCF7 breast
[26] = test system: MDA-MB-231 breast
[27] = test system: MDA-MB-435
[28] = test system: MOLT-4 leukemia
[29] = test system: NCI-H226 lung
[30] = test system: NCI-H23 lung
[31] = test system: NCI-H460 lung
[32] = test system: NCI-H522 lung
[33] = test system: NCI/ADR-RES ovarian
[34] = test system: OVCAR-3 ovarian
[35] = test system: OVCAR-4 ovarian
[36] = test system: OVCAR-5 ovarian
[37] = test system: OVCAR-8 ovarian
[38] = test system: PC-3 prostate
[39] = test system: RPMI-8226 leukemia
[40] = test system: RXF 393 renal
[41] = test system: SF-268 CNS
[42] = test system: SF-295 CNS
[43] = test system: SF-539 CNS
[44] = test system: SK-MEL-2 melanoma
[45] = test system: SK-MEL-28 melanoma
[46] = test system: SK-MEL-5 melanoma
[47] = test system: SK-OV-3 ovarian
[48] = test system: SN12C renal
[49] = test system: SNB-19 CNS
[50] = test system: SNB-75 CNS
[51] = test system: SR leukemia
[52] = test system: SW-620 colon
[53] = test system: T-47D breast
[54] = test system: TK-10 renal
[55] = test system: U251 CNS
[56] = test system: UACC-257 melanoma
[57] = test system: UACC-62 melanoma
[58] = test system: UO-31 renal

Work on `CN(C)c1ccc(-c2c(NC(C)(C)C)nc3c(OCCc4ccccc4)cccn23)cc1` yielded a GI50 [1] of 3.57 µM, a TGI [1] of 15.5 µM and a GI50 [2] of 2.52 µM. The TGI [2] was 7.83 µM, the GI50 [3] was 3.58 µM and the TGI [3] was greater than 100 µM. For the same compound, the GI50 [4] was 3.24 µM, the TGI [4] was greater than 100 µM and the GI50 [5] was 2.98 µM. For the same compound, the TGI [5] was 8.45 µM, the GI50 [6] was 2.95 µM and the TGI [6] was 10.5 µM. For the same compound, the GI50 [7] was 3.29 µM, the TGI [7] was greater than 100 µM and the GI50 [8] was 2.2 µM. It also gave a TGI [8] of 5.24 µM, a GI50 [9] of 4.16 µM and a TGI [9] greater than 100 µM. It also gave a GI50 [10] of 2.89 µM, a TGI [10] of 9.64 µM and a GI50 [11] of 3.55 µM. For the same compound, the TGI [11] was greater than 100 µM, the GI50 [12] was 3.23 µM and the TGI [12] was 20.8 µM. For the same compound, the GI50 [13] was 3.3 µM, the TGI [13] was 24 µM and the GI50 [14] was 3.13 µM. The TGI [14] was 8.38 µM, the GI50 [15] was 3.4 µM and the TGI [15] was 16.9 µM. For the same compound, the GI50 [16] was 2.09 µM, the TGI [16] was 6.15 µM and the GI50 [17] was 2.62 µM. The TGI [17] was 9.02 µM, the GI50 [18] was 2 µM and the TGI [18] was 5.67 µM. The GI50 [19] was 4.3 µM, the TGI [19] was greater than 100 µM and the GI50 [20] was 3.33 µM. For the same compound, the TGI [20] was 39.3 µM, the GI50 [21] was 3.3 µM and the TGI [21] was 16.1 µM. For the same compound, the GI50 [22] was 3 µM, the TGI [22] was 20.7 µM and the GI50 [23] was 3.48 µM. The TGI [23] was 75.6 µM, the GI50 [24] was 2.3 µM and the TGI [24] was 5.95 µM. For the same compound, the GI50 [25] was 2.87 µM, the TGI [25] was 9.82 µM and the GI50 [26] was 2.71 µM. For the same compound, the TGI [26] was 7.87 µM, the GI50 [27] was 3.16 µM and the TGI [27] was 18.1 µM. For the same compound, the GI50 [28] was 3.46 µM, the TGI [28] was 14 µM and the GI50 [29] was 2.72 µM. For the same compound, the TGI [29] was 8.86 µM, the GI50 [30] was 2.91 µM and the TGI [30] was 10.9 µM. It also gave a GI50 [31] of 2.99 µM, a TGI [31] of 9.66 µM and a GI50 [32] of 2.59 µM. For the same compound, the TGI [32] was 6.65 µM, the GI50 [33] was 3.09 µM and the TGI [33] was greater than 100 µM. It also gave a GI50 [34] of 3.04 µM, a TGI [34] of 12.9 µM and a GI50 [35] of 3.06 µM. It also gave a TGI [35] of 12.8 µM, a GI50 [36] of 3.22 µM and a TGI [36] greater than 100 µM. It also gave a GI50 [37] of 3.04 µM, a TGI [37] greater than 100 µM and a GI50 [38] of 3.09 µM. The TGI [38] was greater than 100 µM, the GI50 [39] was 2.53 µM and the TGI [39] was 6.74 µM. The GI50 [40] was 1.94 µM, the TGI [40] was 5.66 µM and the GI50 [41] was 3.53 µM. The TGI [41] was greater than 100 µM, the GI50 [42] was 2.84 µM and the TGI [42] was 8.7 µM. The GI50 [43] was 4.16 µM, the TGI [43] was 19.2 µM and the GI50 [44] was 2.31 µM. For the same compound, the TGI [44] was 4.99 µM, the GI50 [45] was 3.85 µM and the TGI [45] was greater than 100 µM. For the same compound, the GI50 [46] was 1.83 µM, the TGI [46] was 3.37 µM and the GI50 [47] was 3.08 µM. The TGI [47] was 35.8 µM, the GI50 [48] was 2.93 µM and the TGI [48] was greater than 100 µM. For the same compound, the GI50 [49] was 3.43 µM, the TGI [49] was 15.6 µM and the GI50 [50] was 1.79 µM. It also gave a TGI [50] of 8.55 µM, a GI50 [51] of 3.04 µM and a TGI [51] of 18.7 µM. The GI50 [52] was 2.94 µM, the TGI [52] was 22.1 µM and the GI50 [53] was 3.43 µM. It also gave a TGI [53] greater than 100 µM, a GI50 [54] of 2.34 µM and a TGI [54] of 6.8 µM. For the same compound, the GI50 [55] was 3.24 µM, the TGI [55] was 11.4 µM and the GI50 [56] was 2.78 µM. For the same compound, the TGI [56] was 8.19 µM, the GI50 [57] was 3.53 µM and the TGI [57] was 52.1 µM. It also gave a GI50 [58] of 2.01 µM and a TGI [58] of 7.22 µM.

With `COc1ccccc1/C=C/C=N/NC1=NC2C(S1)N(C)C(=O)N2C` (stereo not drawn) the GI50 [1] was 5.77 µM, the TGI [1] was 70.3 µM and the GI50 [2] was 11.1 µM. It also gave a TGI [2] of 94.6 µM, a GI50 [3] of 7.31 µM and a TGI [3] greater than 100 µM. The GI50 [4] was 5.67 µM, the TGI [4] was 93.9 µM and the GI50 [5] was 2.94 µM. For the same compound, the TGI [5] was 12.9 µM, the GI50 [6] was 4.11 µM and the TGI [6] was greater than 100 µM. For the same compound, the GI50 [7] was 4.42 µM, the TGI [7] was greater than 100 µM and the GI50 [8] was 4.8 µM. The TGI [8] was 20.3 µM, the GI50 [9] was 5.74 µM and the TGI [9] was greater than 100 µM. It also gave a GI50 [10] of 9.85 µM, a TGI [10] greater than 100 µM and a GI50 [11] of 10.5 µM. For the same compound, the TGI [11] was 33.2 µM, the GI50 [12] was 4.36 µM and the TGI [12] was 90.8 µM. The GI50 [13] was 3.96 µM, the TGI [13] was greater than 100 µM and the GI50 [14] was 0.545 µM. For the same compound, the TGI [14] was 4.37 µM, the GI50 [15] was 7.76 µM and the TGI [15] was greater than 100 µM. The GI50 [16] was 3.39 µM, the TGI [16] was 32.3 µM and the GI50 [17] was 3.82 µM. It also gave a TGI [17] greater than 100 µM, a GI50 [18] of 3.33 µM and a TGI [18] of 13.2 µM. It also gave a GI50 [19] of 8.3 µM, a TGI [19] greater than 100 µM and a GI50 [21] of 3.92 µM. It also gave a TGI [21] of 17.7 µM, a GI50 [22] of 4.94 µM and a TGI [22] of 21.2 µM. The GI50 [23] was 3.9 µM, the TGI [23] was 43 µM and the GI50 [24] was 4.73 µM. It also gave a TGI [24] of 77.7 µM, a GI50 [25] of 2.91 µM and a TGI [25] greater than 100 µM. For the same compound, the GI50 [26] was 9.27 µM, the TGI [26] was 75.8 µM and the GI50 [28] was 4.54 µM. It also gave a TGI [28] greater than 100 µM, a GI50 [29] of 3.53 µM and a TGI [29] of 90.2 µM. For the same compound, the GI50 [30] was 7.62 µM, the TGI [30] was greater than 100 µM and the GI50 [31] was 3.95 µM. The TGI [31] was greater than 100 µM, the GI50 [32] was 1.68 µM and the TGI [32] was 4.54 µM. The GI50 [33] was 4.19 µM, the TGI [33] was greater than 100 µM and the GI50 [34] was 2.5 µM. The TGI [34] was 6.6 µM, the GI50 [35] was 9.21 µM and the TGI [35] was greater than 100 µM. The GI50 [36] was 5.55 µM, the TGI [36] was greater than 100 µM and the GI50 [37] was 5.47 µM. For the same compound, the TGI [37] was 51.9 µM, the GI50 [38] was 5.28 µM and the TGI [38] was greater than 100 µM. For the same compound, the GI50 [39] was 4.8 µM, the TGI [39] was greater than 100 µM and the GI50 [40] was 2.43 µM. It also gave a TGI [40] of 17 µM, a GI50 [41] of 6.78 µM and a TGI [41] of 38.5 µM. The GI50 [42] was 3.68 µM, the TGI [42] was 38.2 µM and the GI50 [43] was 2.59 µM. The TGI [43] was 8.6 µM, the GI50 [44] was 3.02 µM and the TGI [44] was 15.1 µM. For the same compound, the GI50 [45] was 8.86 µM, the TGI [45] was greater than 100 µM and the GI50 [46] was 3.61 µM. The TGI [46] was 13.8 µM, the GI50 [47] was 6.93 µM and the TGI [47] was 66.4 µM. The GI50 [48] was 4.4 µM, the TGI [48] was 30.7 µM and the GI50 [49] was 6.28 µM. The TGI [49] was greater than 100 µM, the GI50 [50] was 2.82 µM and the TGI [50] was 49.3 µM. It also gave a GI50 [51] of 2.74 µM, a TGI [51] of 30.4 µM and a GI50 [52] of 4.07 µM. It also gave a TGI [52] greater than 100 µM, a GI50 [53] of 5.6 µM and a TGI [53] greater than 100 µM. It also gave a GI50 [54] of 14.3 µM, a TGI [54] of 72.5 µM and a GI50 [55] of 5.02 µM. It also gave a TGI [55] greater than 100 µM, a GI50 [56] of 8.11 µM and a TGI [56] greater than 100 µM. The GI50 [57] was 2.99 µM, the TGI [57] was 34.1 µM and the GI50 [58] was 4.03 µM. It also gave a TGI [58] of 43.6 µM.
